Common to all, as to type: binding
For assay [1], the target named is T1, HeLa cell extract proteins (Homo sapiens, UniProt P55010).
T1 construct: endogenous in cells; host or cells: HeLa cell extract

Assay [2] addresses T2, HeLa cell extract proteins (Homo sapiens, UniProt Q01813).
T2 construct: endogenous in cells; host or cells: HeLa cell extract
T2 sequence (Q01813 1-784): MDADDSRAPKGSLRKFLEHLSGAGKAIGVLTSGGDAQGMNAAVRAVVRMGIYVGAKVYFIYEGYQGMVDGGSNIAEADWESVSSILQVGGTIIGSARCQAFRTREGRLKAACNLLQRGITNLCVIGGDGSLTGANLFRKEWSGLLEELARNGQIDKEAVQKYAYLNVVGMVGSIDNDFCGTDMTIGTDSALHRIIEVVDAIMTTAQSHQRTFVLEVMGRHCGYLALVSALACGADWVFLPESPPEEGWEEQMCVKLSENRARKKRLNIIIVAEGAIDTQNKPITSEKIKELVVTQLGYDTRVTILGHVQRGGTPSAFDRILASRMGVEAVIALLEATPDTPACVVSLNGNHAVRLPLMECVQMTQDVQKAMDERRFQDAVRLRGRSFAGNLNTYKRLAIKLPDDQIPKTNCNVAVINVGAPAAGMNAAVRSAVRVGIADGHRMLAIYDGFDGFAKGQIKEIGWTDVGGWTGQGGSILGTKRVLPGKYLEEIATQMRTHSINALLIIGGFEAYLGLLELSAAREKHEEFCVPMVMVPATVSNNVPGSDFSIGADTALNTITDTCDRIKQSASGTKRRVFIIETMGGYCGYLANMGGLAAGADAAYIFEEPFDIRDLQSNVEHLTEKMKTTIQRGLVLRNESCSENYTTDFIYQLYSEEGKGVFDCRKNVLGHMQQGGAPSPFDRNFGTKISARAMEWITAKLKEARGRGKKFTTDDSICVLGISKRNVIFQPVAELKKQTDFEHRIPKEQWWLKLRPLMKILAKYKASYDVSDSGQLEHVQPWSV

Assay [3] addresses T3, HeLa cell extract proteins (Homo sapiens, UniProt P53992).
T3 construct: endogenous in cells; host or cells: HeLa cell extract
T3 sequence (P53992 1-1094): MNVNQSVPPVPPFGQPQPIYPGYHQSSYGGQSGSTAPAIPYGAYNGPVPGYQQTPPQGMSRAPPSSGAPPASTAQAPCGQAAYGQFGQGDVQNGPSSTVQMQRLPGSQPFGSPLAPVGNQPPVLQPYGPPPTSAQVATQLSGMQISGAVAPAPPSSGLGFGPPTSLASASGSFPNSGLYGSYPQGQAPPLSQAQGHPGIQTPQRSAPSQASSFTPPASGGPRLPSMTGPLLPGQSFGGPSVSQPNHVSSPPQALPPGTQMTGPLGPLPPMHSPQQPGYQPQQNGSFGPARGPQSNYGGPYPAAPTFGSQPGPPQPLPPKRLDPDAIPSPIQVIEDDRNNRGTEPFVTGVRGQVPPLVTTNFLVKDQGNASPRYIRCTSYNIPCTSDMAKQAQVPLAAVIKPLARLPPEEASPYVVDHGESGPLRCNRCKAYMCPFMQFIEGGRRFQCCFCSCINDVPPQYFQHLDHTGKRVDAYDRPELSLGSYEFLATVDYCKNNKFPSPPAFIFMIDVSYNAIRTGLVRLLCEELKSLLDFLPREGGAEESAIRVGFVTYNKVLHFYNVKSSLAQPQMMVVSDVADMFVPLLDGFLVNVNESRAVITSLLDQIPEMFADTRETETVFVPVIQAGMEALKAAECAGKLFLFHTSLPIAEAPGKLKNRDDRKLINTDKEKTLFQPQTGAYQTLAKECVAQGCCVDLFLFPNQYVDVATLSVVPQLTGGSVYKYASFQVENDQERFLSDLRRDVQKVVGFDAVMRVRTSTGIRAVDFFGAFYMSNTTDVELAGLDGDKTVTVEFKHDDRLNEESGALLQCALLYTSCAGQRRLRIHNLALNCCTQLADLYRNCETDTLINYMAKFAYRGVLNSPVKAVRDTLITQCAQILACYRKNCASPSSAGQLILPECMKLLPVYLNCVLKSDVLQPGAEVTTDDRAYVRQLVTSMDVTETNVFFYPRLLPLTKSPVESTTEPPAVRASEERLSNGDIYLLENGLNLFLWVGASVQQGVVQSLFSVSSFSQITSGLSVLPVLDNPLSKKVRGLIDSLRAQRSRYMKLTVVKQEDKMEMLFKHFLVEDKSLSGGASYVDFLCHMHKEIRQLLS

For assay [4], the target named is T4, HeLa cell extract proteins (Homo sapiens, UniProt P32119).
T4 construct: endogenous in cells; host or cells: HeLa cell extract
T4 sequence (P32119 1-198): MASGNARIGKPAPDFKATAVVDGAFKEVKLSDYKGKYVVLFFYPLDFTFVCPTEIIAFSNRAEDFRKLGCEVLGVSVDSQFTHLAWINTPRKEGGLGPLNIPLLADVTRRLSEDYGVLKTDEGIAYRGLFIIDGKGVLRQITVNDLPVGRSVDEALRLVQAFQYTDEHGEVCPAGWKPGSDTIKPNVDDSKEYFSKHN

Read-outs that look alike come from different tables or passages of the source.

T1 sequence (P55010 whole entry): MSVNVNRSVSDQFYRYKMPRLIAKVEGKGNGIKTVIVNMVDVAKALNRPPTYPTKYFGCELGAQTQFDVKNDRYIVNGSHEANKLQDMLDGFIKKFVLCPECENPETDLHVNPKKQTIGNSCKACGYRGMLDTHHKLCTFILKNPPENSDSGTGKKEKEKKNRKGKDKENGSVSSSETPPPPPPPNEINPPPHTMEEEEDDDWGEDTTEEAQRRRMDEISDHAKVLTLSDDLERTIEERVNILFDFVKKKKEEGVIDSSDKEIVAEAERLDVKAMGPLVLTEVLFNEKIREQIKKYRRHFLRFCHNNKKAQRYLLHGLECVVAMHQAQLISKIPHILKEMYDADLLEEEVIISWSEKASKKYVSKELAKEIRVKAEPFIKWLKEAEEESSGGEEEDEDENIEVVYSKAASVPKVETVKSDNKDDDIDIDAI

For `Nc1nc2c(c(=O)[nH]1)N(C=O)C(CNc1ccc(C(=O)N[C@@H](CCC(=O)O)C(=O)O)cc1)CN2` (stereo partly shown) [LEU, leucovorin], the “fold changes relative to vehicle control” value in assay [1] (HeLa, captured protein EIF5) was found to be 0.98; in assay [2] (HeLa, protein PFKP), 0.88; in assay [3] (HeLa, protein SEC24C) it was 0.98; in assay [4] (HeLa, captured protein PRDX2), 1.05.
For `Nc1nc2[nH]cc(CCc3ccc(C(=O)N[C@@H](CCC(=O)O)C(=O)O)cc3)c2c(=O)[nH]1` [PTX, pemetrexed], the “fold changes relative to vehicle control” value is recorded as 1.05 in assay [1], 0.9 in assay [2], 0.96 in assay [3] and 1.17 in assay [4].
Regarding `CCCCCCOc1ccc(Cc2cnc(N)nc2N)cc1` [compound 1], the “fold changes relative to vehicle control” value in assay [1] stood at 1.24 fold; in assay [2] (captured protein PFKP, HeLa), 1.05; in assay [3] (protein SEC24C, HeLa), 1.03; in assay [4] (protein PRDX2, HeLa), 1.36.
As for `CCCCCCOc1cccc(Cc2cnc(N)nc2N)c1` [compound 2], the “fold changes relative to vehicle control” value in assay [1] (HeLa, protein EIF5 (EUKARYOTIC TRANSLATION INITIATION FACTOR 5.)) is reported as 2.16 fold; in assay [2] (captured protein PFKP, HeLa), 1.01; in assay [3] (protein SEC24C, HeLa), 1.01; in assay [4] (protein PRDX2, HeLa), 2.19.
As for `Nc1nc2cccc(-c3ccccc3)c2n1Cc1ccc(Cl)c(Cl)c1` [compound 3], the “fold changes relative to vehicle control” value in assay [1] worked out at 0.91 fold; in assay [2] (captured protein PFKP, HeLa) it was 1.02; in assay [3] (protein SEC24C, HeLa), 1.28; in assay [4] (protein PRDX2, HeLa), 0.89.
As to `NCCOCCOCC(=O)Nc1nc2ncc(CNc3ccc(C(=O)NC(CCC(=O)O)C(=O)O)cc3)nc2c(=O)[nH]1` (stereo not shown) [compound 6], the “fold changes relative to vehicle control” value in assay [1] (HeLa, captured protein EIF5) worked out at 1.64; in assay [2] (HeLa, protein PFKP) it was 0.95; in assay [3] (HeLa, protein SEC24C) it was 0.92; in assay [4] (HeLa, captured protein PRDX2), 1.18.
The corresponding values for `NCCCNc1ccc(C(=O)NC(CCC(=O)O)C(=O)O)cc1` (stereo not shown) [compound 7] are 0.94, 0.93, 1.14 and 0.89.

(Values after paper PMC6199744, “Development of Chemical Proteomics for the Folateome and Analysis of the Kinetoplastid Folateome” (ACS Infectious Diseases, 2018).)
